Like-named read-outs stand apart in the source and are kept apart here. Square brackets hold non-standard residues; d marks the D form. Peptide text beside a SMILES is read from it. * marks the point of attachment. Sta = CC(C)C[C@H](N)[C@@H](O)CC(=O)O; Isovaleryl = CC(C)CC(=O)*
Experiments:
[1] = amide bond, DPPA, Et3N, DMF, 1.75 mM, 4.0 °C
[2] = test system: conscious sodium-deficient Rhesus monkeys; experiment: intravenous evaluation of renin inhibitors in conscious sodium-deficient Rhesus monkeys (blood pressure lowering); format: in vivo, Rhesus monkey; details: i.v. bolus, mean arterial pressure
Excerpt: The following methods were used for in vivo evaluation of the renin inhibitors of Formula I: Intravenous evaluation of renin inhibitors in concious sodium-deficient Rhesus monkeys: Rhesus monkeys, male and female, weighing 2.6-4.5 Kg, were surgically prepared with chronic arterial and venous catheters and vascular access ports for direct monitoring of mean arterial pressure (MAP) and heart rate (HR). The animals were maintained on a low sodium diet (1.2 mmol Na/day) plus friut for a week, and administered LASIX (furosemide) at 2.5 mg/Kg, intramuscularly the evening prior to the experiment. […] The inhibitors were administered by bolus injection using 0.5% acetic acid-5% dextrose in water as the vehicle (0.4 ml/Kg), and MAP and HR were measured. […] PRA was determined as described above. […] A projected ED50 dose for each inhibitor was calculated using the following furmula: ED50 (Test Inhibitor, umoles/Kg)=ED50 (SCRIP)×[IC50 (Test Inhibitor)/IC50 (SCRIP)], where the IC50 values were determined against human plasma renin. […] Percent inhibition of monkey PRA, changes in MAP and HR were calculated and plotted against time. […] The inhibitors were administered orally as a solution (2.5 ml/Kg) in 0.1M citric acid, and MAP and HR were measured over time. […] Percent inhibition of primate PRA and peak changes in MAP and HR were calculated. […]

## COC(=O)[C@H]1CCCCNC(=O)CC[C@H](NC(=O)OC(C)(C)C)C(=O)N[C@@H](CC2CCCCC2)[C@H]1O
[1]; from COC(=O)[C@@H](CCCCN)[C@H](O)[C@H](CC1CCCCC1)NC(=O)[C@H](CCC(=O)O)NC(=O)OC(C)(C)C, 120.3 h
  ring closure, yield of all isomers: 62%

## CC[C@H](C)CNC(=O)[C@H]1CCCNC(=O)CC[C@H](NC(=O)OC(C)(C)C)C(=O)N[C@@H](CC2CCCCC2)[C@H]1O
[1]; from CC[C@H](C)CNC(=O)[C@@H](CCCN)[C@H](O)[C@H](CC1CCCCC1)NC(=O)[C@H](CCC(=O)O)NC(=O)OC(C)(C)C, 145.0 h
  ring closure, yield of all isomers: 18%

## CC(C)CC(=O)N[C@@H](Cc1cnc[nH]1)C(=O)N1CCC[C@H]1C(=O)N[C@@H](Cc1ccccc1)C(=O)N[C@@H](Cc1cnc[nH]1)C(=O)N[C@@H](CC(C)C)[C@@H](O)CC(=O)N[C@@H](CC(C)C)C(=O)N[C@@H](Cc1ccccc1)C(N)=O [SCRIP, Iva-His-Pro-Phe-His-Sta-Leu-Phe-NH2] (Isovaleryl-HPFH[Sta]LF-NH2)
[2]
  ED50 (i.v. dose required to lower blood pressure by 50% of the maximal response): 0.039 µmol/kg

## CC[C@H](C)CNC(=O)[C@H]1CCCCNC(=O)CC[C@H](NC(=O)OC(C)(C)C)C(=O)N[C@@H](CC2CCCCC2)[C@H]1O
[1]; from CC[C@H](C)CNC(=O)[C@@H](CCCCN)[C@H](O)[C@H](CC1CCCCC1)NC(=O)[C@H](CCC(=O)O)NC(=O)OC(C)(C)C, 120.3 h, 2 steps
  ring closure, yield of all isomers: 62%
